“Also recorded” adds a separate entry of the source.
Columns and labels:
[1] = test system: HaCaT cells introduced with the GFP-LC3 vector; experiment: Screening for autophagy activation: GFP-LC3 puncta quantification; type: cell-based, human; conditions: for proportion of cells with increased GFP-LC3 puncta vesicles: fluorescence microscopy
Protocol: A GFP (green fluorescence protein)-conjugated microtubule-binding protein 1 light chain 3 (LC3) expression vector (Cell Biolabs, USA) was introduced into HaCaT cells using Lipofectamine 2000 (Invitrogen, USA), which is a gene transfer reagent, and the resultant was cultured for 12 hours in a condition containing 10% FBS and then treated with candidate compounds expected to promote autophagy, which was selected from a library of single compounds derived from natural substances, at each concentration in the medium. Subsequently, the evaluation was performed by fluorescence microscopy (Leica Microsystems, USA). In order to quantify the induction of autophagy, 100 GFP-positive cells in which puncta autophagosomes were formed (punctae=5) were counted using fluorescence microscopy. In order to improve the barrier function by promoting epidermal differentiation through the activation of autophagy, which is reduced due to aging or external stimuli, a search was conducted starting from a library of single compounds derived from natural substances for those that promote autophagic activity of keratinocytes. Specifically, as in the method of Example 3, candidate compounds expected to promote autophagy were treated to HaCaT cells introduced with the GFP-LC3 vector. Thereafter, the number of cells with increased GFP-LC3 puncta vesicles in the cytoplasm was increased as GFP was conjugated to LC3, which was converted into a membrane-bound form when autophagy was induced in each cell, was compared.

[2] = test system: HaCaT cells; type: cell-based; conditions: 10 μg/mL, 50 μg/mL and 100 μg/mL
[3] = test system: LC3-II; experiment: LC3-II production by western blotting in keratinocytes; type: cell-based, human; conditions: HaCaT cells
Excerpt: (§1) HaCaT cells were inoculated into a 60 mm plate at a concentration of 8×10^5 cells and independently treated with hydroxycinnamic acid, isoamyl acetate, and betaine the next day, and then the cells were eluted with a 5× lysis buffer to obtain proteins. Cell debris was removed by centrifugation and quantified using a BCA protein assay kit (Pierce, USA). The cell-extracted proteins were isolated using a 4%-15% SDS-PAGE gel (Bio-Rad, USA) and transferred to a nitrocellulose membrane (Life Technologies, New Zealand). The cells were then blocked with a TBST buffer containing 3% BSA for 1 hour and thereupon reacted in a buffer solution containing primary antibodies at 4° C. for 1 day. The membrane was washed with TBST, reacted with peroxidase-conjugated secondary antibodies, and then colored using enhanced chemiluminescence (Amersham, UK), and the immune-reactive bands were confirmed with the Fusion FX 5 image system (Vilber Lourmat, France).
The cytotoxicity of betaine on keratinocytes was confirmed, and the results of Experimental Example 1 were confirmed by the western blotting analysis of Example 4 to determine the degree of production of LC3-II converted as it entered into the double membranes of the autophagosomes. […] Additionally, the cells were treated with 50 μg/mL betaine and the amount of LC3-II conversion per hour was observed.

[4] = test system: LC3-II, p62/SQSTM1; experiment: Autophagosome synthesis mechanism: co-treatment with bafilomycin A1, LC3-II and p62 western blotting; type: cell-based, human
Excerpt: as §1
Therefore, in order to investigate a mechanism by which the autophagosomes are increased by way of betaine treatment, the cells were treated with bafilomycin A1 (Baf. A1), which is known as a lysosomal activity inhibitor, together with betaine, and the degree of LC3-II production was confirmed by western blotting analysis.

[5] = test system: AKT-mTOR-S6 pathway; experiment: Phosphorylation of AKT-mTOR-S6 pathway by western blotting; type: cell-based, human; conditions: HaCaT cells
Excerpt: as §1
In previous studies, betaine—homocysteine methyltransferase (BHMT) has been reported to reduce the amount of homocysteine in a betaine-dependent manner. In one study, homocysteine was reported to promote the activity of mTORC1, an enzyme that inhibits autophagy. Thus, in order to find a mechanism by which autophagy is promoted by betaine, an experiment was conducted to identify related upstream signaling factors. […]

[6] = test system: reconstructed human epidermis model (Neoderm-E); experiment: LC3-II production in 3D artificial skin model; type: cell-based; conditions: 1% cream formulation, after 24 hours
Protocol: (§2) A reconstructed human epidermis model (Neoderm-E, Tego Science, Korea) was transferred to a 6-well plate and stabilized in 2 mL of a growth medium (Tego Science, Korea) for 24 hours, and the cream-type hydroxycinnamic acid, isoamyl acetate, and betaine were applied to the artificial skin at each concentration. After culturing for 24 hours, the hydroxycinnamic acid, isoamyl acetate, and betaine cream applied on the artificial skin were washed with phosphate buffer saline (PBS), and then the tissue was disrupted using a RIPA buffer (50 mM Tris-HCl, pH 7.4, 150 mM NaCl, 1% NP-40) containing Protease Inhibitor Cocktails (ThermoFisher Scientific, USA) by sonication. The tissue-extracted proteins were analyzed for the autophagic activity of keratinocytes in the tissue by western blotting analysis. 1% creams of hydroxycinnamic acid, isoamyl acetate, and betaine were applied on the artificial skin, followed by H&E staining after 1 week to confirm the increase in thickness of the epidermis.
In order to confirm whether the differentiation in the epidermis is promoted by the effect of promoting autophagy by way of betaine, hydroxycinnamic acid, and isoamyl acetate, a 3D artificial skin model was used as in Example 5. […] After 24 hours, the degree of LC3-II production was measured through western blotting analysis to determine whether autophagy in the epidermis was promoted.

[7] = test system: reconstructed human epidermis model (Neoderm-E); experiment: Epidermal thickness in 3D artificial skin model; type: cell-based; conditions: 1% cream formulation; for Increase relative to Control: epidermal thickness ratio
Protocol: as §2
Next, the cream formulations of 1% betaine, 1% hydroxycinnamic acid, and 1% isoamyl acetate were applied to the artificial skin, and changes in the thickness of the epidermis were measured after […] staining of the artificial skin tissue.

[8] = general description of the substance; cited from earlier work

SMILES | number of cells with increased GFP-LC3 puncta vesicles, increase compared to the untreated group [1] [%] | proportion of cells with increased GFP-LC3 puncta vesicles [1] [%] | cytotoxicity [2] | amount of LC3-II conversion, from 12 hours ([3]; 50 μg/mL, 12 hours) | amount of LC3-II conversion, after 24 hours ([3]; 50 μg/mL, 24 hours) | amount of LC3-II conversion, until 6 hours ([3]; 50 μg/mL, until 6 hours) | amount of LC3-II by concentration ([3]; 10, 50, 100 μg/mL, western blotting) | amount of p62/SQSTM1 (p62) protein ([4]; betaine treatment, western blotting) | amount of LC3-II with bafilomycin A1 together with betaine compared to betaine alone ([4]; co-treatment with lysosomal activity inhibitor bafilomycin A1) | mTOR signals (degree of phosphorylation of the AKT-mTOR-S6 pathway) [5] | autophagy (degree of LC3-II production) in the epidermis [6] | Thickness of Epidermis [7] [μm] | epidermal thickness increase compared to the control group [7] [%] | Increase relative to Control [7] | solubility [8]
C[N+](C)(C)CC(=O)[O-] [betaine, trimethylglycine] | 18.75 | 25 | no cytotoxicity was observed | the amount of conversion increased | the highest conversion was observed; also recorded: conversion mostly occurred | a significant increase was not observed | increased as the concentration increased | reduced; also recorded: decrease | further increased | not possible to observe a significant difference; also recorded: no significant difference | autophagy was increased | 74 | 19 | 1.19 | 
CC(=O)OCCC(C)C [isoamyl acetate] |  | 16.4 |  |  |  |  |  |  |  |  | autophagy was increased | 85 | 37 | 1.37 | not well soluble in water, but soluble in alcohol and organic solvents

Reference: patent US11484484B2, “Composition for alleviating skin barrier dysfunction” (LG HOUSEHOLD & HEALTH CARE LTD., priority 2018, dated 2022)
